Experimental data reported in patent US9526713B2, “Use of dencichine in preparation of drug for treating thrombocytopenia” (KUNMING SHENGHUO PHARMACEUTICAL (GROUP) CO., LTD., priority 2013, dated 2016).
Like-named read-outs stand apart in the source and are kept apart here.

Key:
female mouse = settings: cited from earlier work
[1] = system: rats suffering thrombopenia induced by carboplatin; assay: Platelet count of rats suffering thrombopenia induced by multiple injections of carboplatin; type: in vivo, Wistar rats; settings: for increase of platelet count compared with the model group: first injection of carboplatin for 10 days
Description: 81 rats are prepared and randomly divided into eight groups: • blank control group, • high-dose group A (4 mg/kg, intraperitoneal injection, non modeling), • model group (40 mg/kg, tail vein injection), • interleukin-11 group (260 μg/kg, subcutaneous injection), • high dose group B (4 mg/kg, intraperitoneal injection, modeling), • high dose group (4 mg/kg, intraperitoneal injection), • middle dose group (1 mg/kg, intraperitoneal injection), and • low dose group (0.25 mg/kg, intraperitoneal injection),
wherein, the Model group has 11 rats, and the other groups has 10 rats respectively. Before the experiment, the animals are asked to adapt the environment for 2 days, and then blood is taken from their tails for detecting hematological index.
After administration for 10 days, blood is taken from tails of rats from blank control group, high-dose group A, and positive drug group respectively for detecting hematological index.
Thereafter, all animals, except for those of blank group and high-dose group A, are individually injected with carboplatin (40 mg/kg) for modeling, and followed by successive administration for 15 days. During these 15 days, the rats of high-dose group A and high dose group B are stopped from administration, and taken blood from the tail on 5th day, 10th day and 15th day after the modeling respectively for detecting hematological indices. After 15th day of modeling, carboplatin (40 mg/kg) is injected again for a second modeling, and all the groups take successive administration according to the foregoing method, once a day for successive 10 days. Before each hematological indices detection, animals are weighed respectively. Taking the tails' blood of rats on 5th day after the second injection of carboplatin for detecting hematological indices, and taking the tails' blood of rats on 10th day after the second injection of carboplatin for detecting the indices of hematology, reticulocytes and coagulation; and weighing animals and killing them; and weighing liver, thymus, spleen and adrenal gland taken from the dead rats, and calculating out viscera indices; further taking out marrow for doing pathological examination.

ITP model mice = type: in vivo, BALB/C mice; settings: 14 days
From the text: Health BALB/C mice (body weight 18˜22 g) are randomly divided into six groups with 12 mice for each group:
Blank group, Model group, Prednisone Acetate Group, Dencichine (high dose, middle dose, and low dose) groups.
Modeling method: blood was taken from orbital vein of BALB/C Mice, followed by EDTA-Na2 Anticoagulation, and then platelets are separated and washed. The prepared platelet suspension solution was mixed uniformly with equal amount of complete Freund's adjuvant and incomplete Freund's adjuvant respectively. In the first week, antigen containing complete Freund's adjuvant is subcutaneously injected into hind paw, back and groin of the guinea pig. Injections are done for 4 times in total, with 5 spots for each injection and 100 μl for each spot. In the 6th week, non-anticoagulated whole blood was taken from the guinea pigs, and was centrifuged for 10 min under 3000 r/min to produce a supernate, which is the anti-mouse platelet serum (GP-APS) of the guinea pigs. The supernate was placed in a water bath (56° C.) for 30 min for complement inactivation, and then the inactivated supernate was diluted with normal saline, followed by test of antibody titers by agar diffusion method, and finally was stored in a refrigerator at −20° C. for later use.
Except the normal group, the mice of the remain five groups are injected with anti-mouse platelet serum (APS) of the guinea pig with a dose of 100 μl/20 g body weight, via intraperitoneal injection, on the 1st, 3rd, 5th, 7th, 9th, 11th and 13th day of the experiment.
The mice of each group are given intragastric administration from the first day. […] The mice of the prednisone acetate group are given intragastric administration of suspension of prednisone acetate at 5 mg/(kg·d). The mice of other groups are given intragastric administration of same volumetric of normal saline at 0.2 ml/20 g body weight. Intragastric administration for once each day, and continuous administration for 14 days.
Observation of the Subcutaneous Purpura:
Class I, minor bleeding are found at injection sites, and hemorrhagic spots are interspersed at other sites;
Class II, overt bleeding are found at injection sites, and ecchymosis and petechiae are found at other sites;

rabbits = assay: Influence of Dencichine for injection on the platelet count of rabbits (single-dose injection); type: in vivo, rabbit
[2] = system: rats with thrombocytopenia caused by carboplatin; assay: Platelet count of rats with thrombocytopenia caused by carboplatin, different prophylactic administration time; type: in vivo, rat
thrombocyte aggregation = assay: Thrombocyte aggregation rate of rats injected with carboplatin; type: in vivo, rat
From the text: So far, it has been reported that a little dencichine can be used as hemostatic drug in prior art, as disclosed in the patent application with publication No. CN1292376A that administrating a little dencichine can achieve hemostasis. However, it has never been reported that dencichine is able to treat Thrombocytopenia.

[3] = high dose group (6 mg/kg per Table 8) intragastric
[4] = low dose group (1.5 mg/kg per Table 8) intragastric
[5] = middle dose group (3 mg/kg) intragastric

## N[C@@H](CNC(=O)C(=O)O)C(=O)O [Dencichine, β-N-oxalyl-L-α, β-diaminopropionic acid]
Female mouse; 1 mg in 0.5 ml Ringer-Locke solution, injected into abdominal cavity of a female mouse
  increase of the platelet count: 30%
Female mouse; Zhao Guoqiang et al., 1984
  effect on the hemostasis and increase of platelet count: significant effect
[1]; high dose group A, 4 mg/kg i.p., non modeling, 5th day after first injection of carboplatin
  platelet count: 1113.8 ± 356.97 ×10^9/L
[1]; high dose group A, 4 mg/kg i.p., non modeling, 5th day after second injection of carboplatin
  platelet count: 1163.3 ± 233.2 ×10^9/L
[1]; high dose group A, 4 mg/kg i.p., non modeling, 10th day after first injection of carboplatin
  platelet count: 638.5 ± 207.9 ×10^9/L
[1]; high dose group A, 4 mg/kg i.p., non modeling, 10th day after second injection of carboplatin
  platelet count: 873 ± 147.2 ×10^9/L
[1]; high dose group A, 4 mg/kg i.p., non modeling, 15th day after first injection of carboplatin
  platelet count: 799.5 ± 349.8 ×10^9/L
[1]; high dose group A, 4 mg/kg i.p., non modeling, before experiment
  platelet count: 625.5 ± 109.3 ×10^9/L
[1]; high dose group A, 4 mg/kg i.p., non modeling, prophylactic administration for 10 days
  platelet count: 586.9 ± 139.67 ×10^9/L
[1]; high dose group B, 4 mg/kg i.p., prophylactic, modeling, 5th day after first injection of carboplatin
  platelet count: 392.7 ± 116.9 ×10^9/L
[1]; high dose group B, 4 mg/kg i.p., prophylactic, modeling, 5th day after second injection of carboplatin
  platelet count: 682.1 ± 266.4 ×10^9/L
[1]; high dose group B, 4 mg/kg i.p., prophylactic, modeling, 10th day after first injection of carboplatin
  platelet count: 142.6 ± 78.6 ×10^9/L
[1]; high dose group B, 4 mg/kg i.p., prophylactic, modeling, 10th day after second injection of carboplatin
  platelet count: 150.5 ± 99.9 ×10^9/L
[1]; high dose group B, 4 mg/kg i.p., prophylactic, modeling, 15th day after first injection of carboplatin
  platelet count: 649.8 ± 234.1 ×10^9/L
[1]; high dose group B, 4 mg/kg i.p., prophylactic, modeling, before experiment
  platelet count: 619.7 ± 106.81 ×10^9/L
[1]; high dose group, 4 mg/kg i.p., 5th day after first injection of carboplatin
  platelet count: 302.2 ± 62.2 ×10^9/L
[1]; high dose group, 4 mg/kg i.p., 5th day after second injection of carboplatin
  platelet count: 758.9 ± 231.2 ×10^9/L
[1]; high dose group, 4 mg/kg i.p., 10th day after first injection of carboplatin
  platelet count: 186.9 ± 81.0 ×10^9/L
[1]; high dose group, 4 mg/kg i.p., 10th day after second injection of carboplatin
  platelet count: 133.8 ± 126.3 ×10^9/L
[1]; high dose group, 4 mg/kg i.p., 15th day after first injection of carboplatin
  platelet count: 1038.3 ± 237.1 ×10^9/L
[1]; high dose group, 4 mg/kg i.p., before experiment
  platelet count: 625.7 ± 127.04 ×10^9/L
[1]; high-dose group (4 mg/kg i.p.)
  increase of platelet count compared with the model group: 27.1%
[1]; low dose group, 0.25 mg/kg i.p., 5th day after first injection of carboplatin
  platelet count: 331.4 ± 76.3 ×10^9/L
[1]; low dose group, 0.25 mg/kg i.p., 5th day after second injection of carboplatin
  platelet count: 712.8 ± 324.7 ×10^9/L
[1]; low dose group, 0.25 mg/kg i.p., 10th day after first injection of carboplatin
  platelet count: 157.8 ± 49.3 ×10^9/L
[1]; low dose group, 0.25 mg/kg i.p., 10th day after second injection of carboplatin
  platelet count: 133 ± 83.661 ×10^9/L
[1]; low dose group, 0.25 mg/kg i.p., 15th day after first injection of carboplatin
  platelet count: 956.8 ± 266.5 ×10^9/L
[1]; low dose group, 0.25 mg/kg i.p., before experiment
  platelet count: 611.5 ± 90.19 ×10^9/L
[1]; middle dose group, 1 mg/kg i.p., 5th day after first injection of carboplatin
  platelet count: 359 ± 102.4 ×10^9/L
[1]; middle dose group, 1 mg/kg i.p., 5th day after second injection of carboplatin
  platelet count: 620.2 ± 226.1 ×10^9/L
[1]; middle dose group, 1 mg/kg i.p., 10th day after first injection of carboplatin
  platelet count: 197.7 ± 78.8 ×10^9/L
[1]; middle dose group, 1 mg/kg i.p., 10th day after second injection of carboplatin
  platelet count: 70.386 ± 36.845 ×10^9/L
[1]; middle dose group, 1 mg/kg i.p., 15th day after first injection of carboplatin
  platelet count: 1043.4 ± 288.1 ×10^9/L
[1]; middle dose group, 1 mg/kg i.p., before experiment
  platelet count: 623 ± 98 ×10^9/L
[1]; middle-dose group (1 mg/kg i.p.)
  increase of platelet count compared with the model group: 34.4%
ITP model mice; [3]
  Subcutaneous purpura, bleeding degree +: 6 number of mice
  Subcutaneous purpura, bleeding degree ++: 2 number of mice
  Subcutaneous purpura, bleeding degree +++: 0 number of mice
  Subcutaneous purpura, bleeding degree −: 0 number of mice
ITP model mice; [4]
  Subcutaneous purpura, bleeding degree +: 4 number of mice
  Subcutaneous purpura, bleeding degree ++: 4 number of mice
  Subcutaneous purpura, bleeding degree +++: 0 number of mice
  Subcutaneous purpura, bleeding degree −: 0 number of mice
ITP model mice; [5]
  Subcutaneous purpura, bleeding degree +: 5 number of mice
  Subcutaneous purpura, bleeding degree ++: 3 number of mice
  Subcutaneous purpura, bleeding degree +++: 0 number of mice
  Subcutaneous purpura, bleeding degree −: 0 number of mice
rabbits; 0.04 mg/kg, 0 min
  PLT: 523.3 ± 78.5 ×10^9/L
rabbits; 0.04 mg/kg, 30 min
  PLT: 451.0 ± 144.5 ×10^9/L
rabbits; 0.04 mg/kg, 60 min
  PLT: 504.0 ± 87.8 ×10^9/L
rabbits; 0.20 mg/kg, 0 min
  PLT: 574.0 ± 64.3 ×10^9/L
rabbits; 0.20 mg/kg, 30 min
  PLT: 502.3 ± 60.8 ×10^9/L
rabbits; 0.20 mg/kg, 60 min
  PLT: 518.2 ± 128.5 ×10^9/L
rabbits; 1.00 mg/kg, 0 min
  PLT: 491.2 ± 163.1 ×10^9/L
rabbits; 1.00 mg/kg, 30 min
  PLT: 526.5 ± 143.8 ×10^9/L
rabbits; 1.00 mg/kg, 60 min
  PLT: 541.0 ± 121.6 ×10^9/L
rabbits; single-dose injection, various doses
  change on the platelet count of rabbits: no obvious change
[2]; prophylactic administration for 3 days
  platelet count compared with that of model group: no significant difference
[2]; prophylactic administration for 3 days, after prophylactic administration
  platelet count: 656.3 ± 67.35 ×10^9/L
[2]; prophylactic administration for 3 days, initial value
  platelet count: 717.5 ± 276.94 ×10^9/L
[2]; prophylactic administration for 3 days, injection of carboplatin for 10 days
  platelet count: 110.2 ± 40.43 ×10^9/L
[2]; prophylactic administration for 5 days and 7 days
  platelet count compared with that of model group: increase the platelet count
[2]; prophylactic administration for 5 days, after prophylactic administration
  platelet count: 773.2 ± 142.02 ×10^9/L
[2]; prophylactic administration for 5 days, initial value
  platelet count: 736.2 ± 182.37 ×10^9/L
[2]; prophylactic administration for 5 days, injection of carboplatin for 10 days
  platelet count: 176.2 ± 28.34 ×10^9/L
[2]; prophylactic administration for 7 days, after prophylactic administration
  platelet count: 772.8 ± 70.63 ×10^9/L
[2]; prophylactic administration for 7 days, initial value
  platelet count: 743.7 ± 226.92 ×10^9/L
[2]; prophylactic administration for 7 days, injection of carboplatin for 10 days
  platelet count: 166.2 ± 18.20 ×10^9/L
Thrombocyte aggregation
  thrombocyte aggregation rate: increasing thrombocyte aggregation rate
